pKd: −log10 of the molar value.
Molecular target: T1, KpCld (Klebsiella pneumoniae, UniProt A6TJ49)
T1 sequence (A6TJ49 1-187): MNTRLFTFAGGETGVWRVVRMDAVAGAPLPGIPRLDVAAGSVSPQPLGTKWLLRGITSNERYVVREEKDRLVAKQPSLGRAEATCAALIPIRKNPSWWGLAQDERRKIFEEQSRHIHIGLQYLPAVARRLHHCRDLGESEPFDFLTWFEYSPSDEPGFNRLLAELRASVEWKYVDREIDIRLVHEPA
Settings: 100 mM phosphate pH 6.0; ferric enzyme; single binding site

Br [Br^−]
pKd: 1.91
